# Data taken from patent US20150110716A1, “METHODS OF USING SPECT/CT ANALYSIS FOR STAGING CANCER” (Molecular Insight Pharmaceuticals, Inc., priority 2013, published 2015).
# Legend:
# [1] = system: lesions in lymph nodes and bone of men with prostate cancer; assay: Phase 1 cross-over study: whole-body and SPECT/CT lesion imaging; format: in vivo, human; details: patient with prior prostatectomy and rising PSA, FIG. 2C
# Description: (§1) Pharmacokinetics, Biodistribution, Dosimetry, Metabolism & Excretion of compound represented by Formula (1) and Formula (2). Methods: Fourteen subjects (7 metastatic prostate cancer patients and 7 healthy, normal males) were enrolled in a phase 1, single-blind, randomized, cross-over study in which subjects were randomly administered a single dose (740 MBq; 20 mCi) of a compound represented by Formula (1) and a similar chemical analog, a compound represented by Formula (2), 14 days apart. […] (FIGS. 1 and 2A)
# [2] = Phase 1 cross-over study: pharmacokinetics, biodistribution, dosimetry, excretion; format: in vivo, human
# Description: as §1
# [3] = biological target: PSMA (Homo sapiens, UniProt Q04609); assay: In vitro binding studies to PSMA; details: read-out: affinity of binding to PSMA
# Chain of PSMA (Q04609 whole entry): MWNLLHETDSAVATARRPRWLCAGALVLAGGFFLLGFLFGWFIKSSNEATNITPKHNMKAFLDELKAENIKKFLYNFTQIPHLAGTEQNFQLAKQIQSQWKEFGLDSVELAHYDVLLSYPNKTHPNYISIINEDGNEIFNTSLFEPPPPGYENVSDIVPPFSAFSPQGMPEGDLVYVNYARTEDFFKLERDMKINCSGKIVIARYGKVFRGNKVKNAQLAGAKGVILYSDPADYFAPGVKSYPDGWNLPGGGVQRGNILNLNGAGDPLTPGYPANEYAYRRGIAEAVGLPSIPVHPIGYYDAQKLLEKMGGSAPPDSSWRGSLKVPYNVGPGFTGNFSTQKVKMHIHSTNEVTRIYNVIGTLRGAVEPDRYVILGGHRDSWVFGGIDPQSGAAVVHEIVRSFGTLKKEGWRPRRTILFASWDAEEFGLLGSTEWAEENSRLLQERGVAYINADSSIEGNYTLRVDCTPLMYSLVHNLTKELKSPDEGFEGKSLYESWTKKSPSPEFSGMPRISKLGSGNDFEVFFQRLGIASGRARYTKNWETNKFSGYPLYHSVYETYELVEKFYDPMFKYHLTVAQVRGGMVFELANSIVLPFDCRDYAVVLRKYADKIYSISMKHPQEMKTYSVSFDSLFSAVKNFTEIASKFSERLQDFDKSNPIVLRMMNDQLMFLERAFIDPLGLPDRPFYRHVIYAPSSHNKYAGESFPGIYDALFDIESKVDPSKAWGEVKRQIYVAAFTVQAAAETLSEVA
# Description: As illustrated, the dimeric backbone of both Formula (1) and Formula (2) compounds contain carboxylate residues that bind to the basic substrate binding pockets of the protein. The radiolabel chelator is attached to the side chain carboxyl residue (Formula (1)) or the side chain amine group (Formula (2)) through an intervening linker.
Compound,detection of metastatic lesions compared with bone scan [1],period over which compound is cleared from blood ([2]; FIG. 1A),physiological clearance rate ([2]; Formula (2) compared with Formula (1)),"rate of clearance from blood ([2]; Formula (2) compared with Formula (1), FIG. 1A)","clearance from these organs ([2]; Formula (2) compared with Formula (1), full body scans over 24 hours)",tissues of accumulation ([2]; in vivo pharmacokinetic and biodistribution studies),estimated radiation dose (dosimetry) ([2]; single dose 740 MBq (20 mCi)),"amount excreted in urine ([2]; urine samples over 30 hours post administration, Formula (2) compared with Formula (1), FIG. 1B)",Kd [3] [nM]
N[C@@H](CCCC[N+]12Cc3n(CC(=O)O)cc[n+]3[99Tc-2]1[n+]1ccn(CC(=O)O)c1C2)C(=O)NCCCCC(NC(=O)NC(CCC(=O)O)C(=O)O)C(=O)O.[C-]#[O+].[C-]#[O+].[C-]#[O+] (stereo partly drawn) [Formula (2)],identified multiple foci of metastatic cancer not seen in the bone scan,about 1500 minutes,more rapid,greater,clears more rapidly,"liver, kidneys and salivary glands as well as the urinary bladder and prostate tissue",within the clinically acceptable range,significantly greater amount,
N[C@@H](CCCC[N+]12Cc3n(CC(=O)O)cc[n+]3[Tc-2]1[n+]1ccn(CC(=O)O)c1C2)C(=O)NCCCCC(NC(=O)NC(CCC(=O)O)C(=O)O)C(=O)O.[C-]#[O+].[C-]#[O+].[C-]#[O+] (stereo partly drawn) [Formula (2)],,,,,,,,,31
